Some test systems named below: UO-31; SNB-75; KM12; 786-0; MOLT-4; IGROV-1; TK-10; HCC 2998; SF-268; SK-MEL-5; CCRF-CEM; UACC-62; OVCAR-4; NCI-H522; EKVX; A549; OVCAR-5; COLO 205.
What all share (assay): NCI anticancer screen, dose series, 48 h

Molecules are shown by their SMILES.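 Cultured in 96-well plates, cells were exposed to test compound for 48 hours across five concentrations. GI50 marks 50% less growth.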 Active and inactive are the calls of the source. No stated cut-off is given here; in the data, active = GI50 up to about 1.1 µM and inactive = higher.

Regarding `O=c1[nH]c(=O)n([C@@H]2C[C@H](CO)[C@H](O)C2)cc1/C=C/Br`, the GI50 in the assay with UO-31, in the assay with SNB-75, in the assay with KM12, with 786-0, in the assay with MOLT-4 and with IGROV-1 was > 100 µM (inactive) each time. The GI50 in the assay with TK-10, in the assay on HCC 2998, in the assay with SF-268, with SK-MEL-5, with CCRF-CEM and with UACC-62 was > 100 µM (inactive) in each case. For the same compound, the GI50 in the assay on OVCAR-4, in the assay on NCI-H522, in the assay on EKVX, with A549 and with OVCAR-5 was > 100 µM (inactive) throughout.
With `COc1cc2c(cc1OC)[C@@H]([C@H](O)c1ccccc1)NCC2`, the GI50 in the assay with UO-31 is > 92.7 µM (inactive); with SNB-75, 55 µM (inactive); in the assay with COLO 205, > 100 µM (inactive); with KM12, > 100 µM (inactive); in the assay on 786-0, > 100 µM (inactive); in the assay with MOLT-4 it was > 100 µM (inactive). The GI50 in the assay with IGROV-1, with TK-10, in the assay with HCC 2998, with SF-268, in the assay on SK-MEL-5 and with CCRF-CEM was > 100 µM (inactive) throughout. Also, the GI50 was > 100 µM (inactive) with UACC-62; > 100 µM (inactive) with OVCAR-4; > 100 µM (inactive) with NCI-H522; > 97.7 µM (inactive) with EKVX; > 100 µM (inactive) in the assay with A549; > 100 µM (inactive) in the assay on OVCAR-5.
`N#CC(c1ccccn1)c1nc2ccccc2[nH]1` (centres undefined): the GI50 is > 100 µM (inactive) in the assay on UO-31; 49.3 µM (inactive) in the assay with SNB-75; > 100 µM (inactive) in the assay on COLO 205; 97.5 µM (inactive) in the assay with 786-0; 47.5 µM (inactive) with MOLT-4; > 100 µM (inactive) in the assay with TK-10. In addition, the GI50 is > 100 µM (inactive) with HCC 2998; > 100 µM (inactive) in the assay on SF-268; > 100 µM (inactive) in the assay on SK-MEL-5; > 100 µM (inactive) in the assay on CCRF-CEM; 70.3 µM (inactive) with UACC-62; 81.1 µM (inactive) in the assay on OVCAR-4. The GI50 with NCI-H522, with EKVX, in the assay on A549 and with OVCAR-5 was > 100 µM (inactive) in each case.
Take `COc1ccc(C(C2=C(O)CC(C)OC2=O)C2=C(O)CC(C)OC2=O)cc1` (centres undefined): the GI50 with UO-31, in the assay with SNB-75, in the assay on COLO 205, with KM12, in the assay on 786-0 and with MOLT-4 was > 100 µM (inactive) each time. Further, the GI50 in the assay on IGROV-1, in the assay with HCC 2998, in the assay on SF-268, in the assay on SK-MEL-5, in the assay on CCRF-CEM and with UACC-62 was > 100 µM (inactive) in each case. Besides, the GI50 in the assay with OVCAR-4, in the assay on NCI-H522, with EKVX, in the assay with A549 and with OVCAR-5 was > 100 µM (inactive) in each case.
Take `COc1ccc2[nH]c3c4c(c5cc(C(C)(C)C)ccc5c3c2c1)C(=O)N(c1ccccc1)C4=O`: the GI50 with UO-31 is > 100 µM (inactive); in the assay with SNB-75 it was 57 µM (inactive); with COLO 205, > 100 µM (inactive); in the assay with KM12, > 100 µM (inactive); in the assay on 786-0 it was > 100 µM (inactive); with MOLT-4, > 100 µM (inactive). The GI50 was > 100 µM (inactive) in the assay on IGROV-1; 60.5 µM (inactive) with TK-10; 21.3 µM (inactive) in the assay with HCC 2998; > 100 µM (inactive) with SF-268; > 100 µM (inactive) in the assay on SK-MEL-5; > 10 µM (inactive) with CCRF-CEM. The GI50 in the assay on UACC-62, in the assay with OVCAR-4, in the assay on NCI-H522, in the assay on EKVX, in the assay on A549 and with OVCAR-5 was > 100 µM (inactive) each time.
Regarding `CC(C)[C@H](COC(C)(C)C)/N=C/N1CSc2ccccc21`, the GI50 is 96.2 µM (inactive) in the assay with UO-31; 30.3 µM (inactive) with SNB-75; 18.9 µM (inactive) in the assay with COLO 205; 27.6 µM (inactive) in the assay on KM12; 49.8 µM (inactive) in the assay with 786-0; 36.1 µM (inactive) with MOLT-4. Further, the GI50 in the assay on IGROV-1 is 34 µM (inactive); with TK-10, 51.5 µM (inactive); in the assay on HCC 2998, 47.3 µM (inactive); in the assay on SF-268, 59 µM (inactive); with SK-MEL-5, 25.1 µM (inactive); in the assay with CCRF-CEM, 33.1 µM (inactive). In addition, the GI50 was 48.8 µM (inactive) with UACC-62; 27.9 µM (inactive) in the assay with OVCAR-4; 31.9 µM (inactive) in the assay with NCI-H522; 44.1 µM (inactive) in the assay with EKVX; 42 µM (inactive) in the assay on A549; > 100 µM (inactive) in the assay with OVCAR-5.
With `O=C(/N=C(\Nc1ccccc1)SCCS/C(=N/C(=O)c1cccs1)Nc1ccccc1)c1cccs1`, the GI50 in the assay on UO-31 was 31.7 µM (inactive); in the assay with SNB-75, 35.6 µM (inactive); with COLO 205, 77.1 µM (inactive); in the assay on KM12 it was 41 µM (inactive); with 786-0, 61.4 µM (inactive); in the assay with MOLT-4, 24 µM (inactive). In addition, the GI50 in the assay on IGROV-1 was > 100 µM (inactive); in the assay on TK-10, > 100 µM (inactive); with HCC 2998, 35.1 µM (inactive); with SF-268, > 10 µM (inactive); in the assay on SK-MEL-5, 21.5 µM (inactive); in the assay with CCRF-CEM, 34.8 µM (inactive). Also, the GI50 with UACC-62 is 47 µM (inactive); in the assay with OVCAR-4 it was 30.3 µM (inactive); in the assay with NCI-H522, 20.9 µM (inactive); in the assay with EKVX, 92.5 µM (inactive); with A549, 41.8 µM (inactive); in the assay with OVCAR-5, > 100 µM (inactive).
As to `Cc1ccccc1NC(=O)/C=N/O`, the GI50 in the assay on UO-31, in the assay on SNB-75, with COLO 205, in the assay on KM12, in the assay on 786-0 and with MOLT-4 was > 100 µM (inactive) each time. Further, the GI50 in the assay with IGROV-1 was > 100 µM (inactive); with TK-10, > 100 µM (inactive); in the assay with HCC 2998, > 100 µM (inactive); with SF-268, > 100 µM (inactive); in the assay on SK-MEL-5, > 100 µM (inactive); in the assay with CCRF-CEM it was < 0.01 µM (active). The GI50 with UACC-62 is 14.6 µM (inactive); in the assay with OVCAR-4 it was > 100 µM (inactive); in the assay on NCI-H522, > 100 µM (inactive); in the assay with EKVX, 22 µM (inactive); with A549, > 100 µM (inactive); in the assay with OVCAR-5 it was > 100 µM (inactive).
In the case of `COC(c1ccccc1)C(c1ccccc1)N1CCOCC1` (centres undefined), the GI50 in the assay with UO-31, in the assay on SNB-75, in the assay on COLO 205, with KM12, with 786-0 and in the assay on MOLT-4 was > 100 µM (inactive) throughout. Besides, the GI50 in the assay with IGROV-1, in the assay on TK-10, in the assay on HCC 2998, with SF-268, with SK-MEL-5 and in the assay on CCRF-CEM was > 100 µM (inactive) in each case. The GI50 in the assay with UACC-62, with OVCAR-4, in the assay with NCI-H522, in the assay with EKVX, in the assay with A549 and in the assay with OVCAR-5 was > 100 µM (inactive) throughout.
Take `O=C1C(Cl)C(c2ccccc2O)N1n1cnc2ccccc2c1=O` (centres undefined): the GI50 in the assay with UO-31 is 50 µM (inactive); in the assay with SNB-75, 20.4 µM (inactive); in the assay with COLO 205, 30.1 µM (inactive); in the assay with KM12, > 100 µM (inactive); with 786-0, 47.5 µM (inactive); in the assay with MOLT-4, 27.6 µM (inactive). The GI50 was 61.7 µM (inactive) in the assay on IGROV-1; > 100 µM (inactive) with TK-10; > 100 µM (inactive) in the assay with HCC 2998; 43.4 µM (inactive) with SF-268; 56.2 µM (inactive) in the assay with SK-MEL-5; 19.8 µM (inactive) in the assay with CCRF-CEM. Also, the GI50 in the assay on UACC-62 is 44.3 µM (inactive); with OVCAR-4, 23.7 µM (inactive); in the assay on NCI-H522 it was 23.6 µM (inactive); with EKVX, 23.9 µM (inactive); in the assay with A549, 63.1 µM (inactive); with OVCAR-5 it was > 100 µM (inactive).
Turning to `Cc1ccccc1NC(=O)/C(=N\NC(N)=S)C(C#N)c1ccccc1` (centres undefined), the GI50 in the assay on UO-31, with SNB-75, in the assay on COLO 205, with KM12, in the assay on 786-0 and in the assay on MOLT-4 was > 100 µM (inactive) throughout. The GI50 with IGROV-1, with TK-10, in the assay with HCC 2998, in the assay with SF-268, in the assay with SK-MEL-5 and in the assay with CCRF-CEM was > 100 µM (inactive) throughout. For the same compound, the GI50 with UACC-62, in the assay on OVCAR-4, with NCI-H522, in the assay with EKVX, in the assay with A549 and in the assay with OVCAR-5 was > 100 µM (inactive) in each case.

The values above are taken from ChEMBL document CHEMBL1201862, “PubChem BioAssay data set” (2004).
